In article PMC5844890 (Scientific Reports, 2018):
Read-outs that look alike come from different tables or passages of the source.

Columns and labels:
[1] = test system: HeLa cells; assay: Anti-proliferative activity, HeLa cervical carcinoma cells (Coulter counting); type: cell-based; conditions: Homo sapiens, 72 h, read-out: Tumor cells IC50 HeLa
Description: (§1) The anti-proliferative activity of the synthesized benzofurane derivatives was studied in three human cancer cell lines [breast carcinoma (MDA-MB-231), lymphoblastic leukemia (CEM) and cervical carcinoma (HeLa) cells] and one endothelial cell line [human microvascular endothelial cells (HMEC-1)].
(§2) The human microvascular endothelial cell line HMEC-1 was obtained at passage 12 from the Centers for Disease Control and Prevention (Atlanta, GA, USA) and used from passage 17 till 27. Human breast carcinoma (MDA-MB-231), human cervical carcinoma (HeLa) and human T-lymphoid (CEM) cells were obtained from ATCC (Middlesex, UK). Cell lines were maintained in culture for up to 3 months and grown in DMEM, supplemented with 10% FBS, 0.01 M Hepes and 1 mM sodium pyruvate. All cells were cultured in a humidified 5% CO2 incubator at 37 °C.
(§3) HMEC-1 cells were seeded in 48-well plates at 20,000 cells/well. After 24 h, 5-fold dilutions of the compounds were added. The cells were allowed to proliferate 4 days in the presence of the compounds, trypsinized, and counted by means of a Coulter counter (Analis, Belgium). HeLa and MDA-MB-231 cells were seeded in 48-well plates at 10,000 cells/well. After 24 h, different concentrations of the compounds were added. After 3 days of incubation, the cells were trypsinized and counted in a Coulter counter. Suspension cells (human lymphoid Cem cells) were seeded in 96-well plates at 60,000 cells/well in the presence of different concentrations of the compounds, allowed to proliferate for 96 h, and counted in a Coulter counter. The 50% inhibitory concentration (IC50) was defined as the compound concentration required to reduce cell proliferation by 50%.

[2] = test system: CEM cells; assay: Anti-proliferative activity, CEM lymphoblastic leukemia cells (Coulter counting); type: cell-based; conditions: Homo sapiens, CCRF-CEM, 96 h, read-out: Tumor cells IC50 CEM
Description: as §1, §2, §3

[3] = test system: A2780 cells; assay: Anti-proliferative activity, A2780 ovarian carcinoma cells; type: cell-based, human; conditions: mean ± standard error of three independent experiments
Description: (§4) One of the most relevant causes of tumor resistance to chemotherapy is the overexpression of membrane pumps which remove the chemotherapeutic agents from the treated cells.

[4] = test system: HMEC-1 cells; assay: IncuCyte scratch wound migration assay with PI uptake; type: cell-based
Description: Proper tubulin organization is not only required for cell division but also for cell motility and migration. Therefore, we evaluated the capacity of the compounds to inhibit the migration of HMEC-1 endothelial cells. To this end, we used the 96-well IncuCyte® scratch wound assay. After the creation of a cell-free zone (wound) in a confluent cell monolayer, compounds were added, and relative wound density was measured every minute and visualized in time-course plots. PI was added to all wells to visualize toxicity over time, i.e. only dead cells take up this cell-impermeable dye.
Figure 7 Inhibition of HMEC-1 migration. The 96-well IncuCyte® scratch wound assay was used to create a cell-free zone (wound) in a confluent cell monolayer. Next, compounds were added and the relative wound density was measured every minute and visualized in time-course plots (left panels). PI is added to all wells to visualize toxicity over time, i.e. only dead cells take up this cell-impermeable dye (right panels). Average ± SEM (n = 3) are shown.
Wounds were created in confluent HMEC-1 cells by means of the “Incucyte® wound maker”. Next, different concentrations of compound and PI were added and images were taken every 2 min for the duration of the experiment. The algorithm masks each phase-contrast image to identify the position of the wounded (cell-free) and unwounded (cell-occupied) zones. Relative wound density is calculated and visualized in time-course plots.

[5] = test system: HMEC-1 cells; assay: Anti-proliferative activity, HMEC-1 microvascular endothelial cells (Coulter counting); type: cell-based; conditions: Homo sapiens, HMEC-1, 96 h, read-out: Endothelial cells IC50 HMEC-1
Description: as §1, §2, §3

[6] = test system: MDA-MB-231 cells; assay: Anti-proliferative activity, MDA-MB-231 breast carcinoma cells (Coulter counting); type: cell-based; conditions: Homo sapiens, MDA-MB-231, 72 h, read-out: Tumor cells IC50 MDA-MB-231
Description: as §1, §2, §3

[7] = test system: MDA-MB-231 cells; assay: Cell cycle analysis (propidium iodide, flow cytometry); type: cell-based, human; conditions: 0.3 µM, 24 h treatment
Description: Tubulin-binding agents interfere with mitotic spindle formation during cell division. […] Thus, we investigated whether 27 and 28 affect the progression of human breast cancer MDA-MB-231 cells through the cell cycle. […] In contrast, compounds 27 and 28 arrested the cell cycle in the M phase (mitosis) at concentrations as low as 0.03 and 0.1 μM (for compound 27 and 28 respectively).
(§5) Figure 6 Mechanism of action of the benzofurane derivatives. (A) Inhibition of cell cycle progression. MDA-MB-231 cells were treated with DMSO (control) or compounds 8, 27 or 28 for 24 h. Next, the cells were harvested, stained with propidium iodide (PI), and cell cycle distribution was evaluated by flow cytometry. Percentages of cells in the different phases of the cell cycle are indicated. (B) Caspase-3 activity. MDA-MB-231 cells were seeded in 48-well plates at 40,000 cells/cm². After 24 h, different concentrations of compounds 8, 27 or 28 and 2 µM of the caspase-3 substrate DEVD-NucView488 were added. After 16 h, the cells were incubated with 2 µg/ml Hoechst 33342 to stain the nucleus, and imaged. (C) Disruption of the vascular network. HMEC-1 cells were cultured on matrigel for 3 h to allow the formation of tube-like structures. Next, different concentrations of compounds were added. Upper panel: After 90 min, pictures were taken and the tubular network was scored (3: intact network, 0: network completely destroyed). Bars show average ± SEM (n = 4). Lower panel: Microscopic pictures of the tubular network 3 h after addition of compound.
MDA-MB-231 cells were seeded in 6-well plates at 125,000 cells/well in DMEM with 10% FBS. After 24 h, the cells were exposed to different concentrations of the compounds. After 24 h, the DNA of the cells was stained with propidium iodide using the CycleTEST PLUS DNA Reagent Kit (BD Biosciences, San Jose, CA). The DNA content of the stained cells was assessed by flow cytometry on a FACSCalibur flow cytometer and analyzed with CellQuest software (BD Biosciences) within 3 h after staining. Cell debris and clumps were excluded from the analysis by appropriate dot plot gating. Percentages of sub-G1, G1, S, and G2/M cells were estimated using appropriate region markers.

[8] = test system: A2780AD cells; assay: Anti-proliferative activity, A2780AD (MDR overexpressing P-glycoprotein) ovarian carcinoma cells; type: cell-based, human; conditions: P-glycoprotein overexpressing resistant line, mean ± standard error of three independent experiments, read-out: A2780 AD IC50
Description: as §4

[9] = test system: MDA-MB-231 cells; assay: Caspase-3 activity / apoptosis in live cells (fluorescence microscopy); type: cell-based, human; conditions: 1 µM, after 24 h
Description: as §5
To confirm the capacity of compounds 27 and 28 to induce apoptosis, MDA-MB-231 cells were treated with the compounds for 24 h in the presence of NucView® 530 Caspase-3. This substrate is cleaved by active caspase-3 activity (the main executioner enzyme during apoptosis) to generate a fluorescent derivative that is analyzed using fluorescence microscopy.
MDA-MB-231 cells were seeded at 40,000 cells/cm². After 24 h, cells were incubated in Fluorobrite DMEM (Gibco), containing the compound and 2 µM of the caspase-3 substrate DEVD-NucView488 (Biotium, Hayward, CA). After 16 h, the DNA was stained with Hoechst33342 and the cells were imaged by fluorescence microscopy.

[10] = test system: αβ-tubulin; conditions: relative to prototypes 7 and 8; cited from earlier work
[11] = test system: tumor and endothelial cells; design: method as in PMID 24773591; conditions: relative to prototypes 7 and 8; cited from earlier work
[12] = mean ± SD of three independent experiments, 3 days of incubation
[13] = mean ± SD of three independent experiments
[14] = mean ± SD of three independent experiments, 4 days

| SMILES | IC50 ([3]; Homo sapiens, A2780) | IC50 ([8]; Homo sapiens, A2780AD) | IC50 [1, 12] | IC50 [2, 13] | IC50 [5, 14] | IC50 [6, 12] | melting point | also measured |
| --- | --- | --- | --- | --- | --- | --- | --- | --- |
| CCOc1ccccc1NC(C)=C1C(=O)CC(c2ccccc2)CC1=O (stereo not drawn) [Compound 8] | 116 ± 8 nM | 111 ± 16 nM | – | – | – | – | – | IC50 [1]: 180 nM; IC50 [2]: 190 ± 10 nM; lowest concentration inhibiting wound closure [4]: 0.5 µM; uptake of PI (toxicity) ([4]; at the lowest concentration inhibiting wound closure (0.5, 0.06 and 0.06 µM)): No increased uptake of PI; IC50 [5]: 100 ± 20 nM; IC50 [6]: 68 ± 5 nM; cell cycle arrest [7]: no longer active; apoptotic rate (apoptotic cells, caspase-3 substrate) [9]: 9% |
| COc1cc([C@@H]2c3cc4c(cc3[C@H](O)[C@H]3COC(=O)[C@H]23)OCO4)cc(OC)c1OC [Podophillotoxin, reference compound] | – | – | – | – | – | – | – | IC50 [3]: 64 ± 9 nM; IC50 [8]: 74 ± 12 nM |
| CC(=O)O[C@H]1C(=O)[C@@]2(C)[C@H]([C@H](OC(=O)c3ccccc3)[C@]3(O)C[C@H](OC(=O)[C@H](O)[C@@H](NC(=O)c4ccccc4)c4ccccc4)C(C)=C1C3(C)C)[C@]1(OC(C)=O)CO[C@@H]1C[C@@H]2O [Paclitaxel, reference compound] | 1 ± 0.1 nM | 2100 ± 300 nM | – | – | – | – | – | – |
| COC(=O)c1cc2cccc(NC(C)=C3C(=O)CC(c4ccccc4)CC3=O)c2o1 (stereo not drawn) [Compound 20, Methyl 7-((1-(2,6-dioxo-4-phenylcyclohexylidene)ethyl)amino)benzofuran-2-carboxylate] | 440 ± 20 nM | 660 ± 50 nM | 890 ± 30 nM | 640 ± 360 nM | 1600 ± 600 nM | 170 ± 10 nM | 178 to 180 °C | – |
| CNC(=O)c1cc2cccc(NC(C)=C3C(=O)CC(c4ccccc4)CC3=O)c2o1 (stereo not drawn) [Compound 21, 7-((1-(2,6-Dioxo-4-phenylcyclohexylidene)ethyl)amino)-N-methylbenzofuran-2-carboxamide] | – | – | 12000 ± 6000 nM | 5500 ± 1700 nM | 14000 ± 11000 nM | 1500 ± 600 nM | 108 to 110 °C | – |
| CC(Nc1cccc2cc(CO)oc12)=C1C(=O)CC(c2ccccc2)CC1=O (stereo not drawn) [Compound 22, 2-(1-((2-(Hydroxymethyl)benzofuran-7-yl)amino)ethylidene)-5-phenylcyclohexane-1,3-dione] | – | – | 140 ± 40 nM | 40 ± 2 nM | 150 ± 50 nM | 15 ± 2 nM | 120 to 122 °C | – |
| COc1ccc(/C=C\c2cc(OC)c(OC)c(OC)c2)cc1OP(=O)(O)O [CA-4P, reference compound] | – | – | – | – | – | – | – | IC50 [1]: 13 ± 1 nM; IC50 [2]: 11 ± 1 nM; IC50 [5]: 2.9 ± 0.1 nM; IC50 [6]: 2.1 ± 0.3 nM |
| CCC(Nc1ccccc1O)=C1C(=O)CC(c2ccccc2)CC1=O (stereo not drawn) [Compound 9] | – | – | – | – | – | – | – | fold less active in tubulin binding [10]: 100 fold; fold less active in antiproliferative assays [11]: 100 fold |
| CC(Nc1cccc2cc(C)oc12)=C1C(=O)CC(c2ccccc2)CC1=O (stereo not drawn) [Compound 14, 2-(1-((2-Methylbenzofuran-7-yl)amino)ethylidene)-5-phenylcyclohexane-1,3-dione] | – | – | 160 ± 10 nM | 38 ± 1 nM | 65 ± 3 nM | 53 ± 6 nM | 127 to 129 °C | – |
